The text below walks through data of PubChem BioAssay (NCI).

Holding throughout (experiment): NCI tumour cell line growth inhibition, 48 h
In assay [1] the test system is A498 renal.
Assay [2] has as its system ACHN renal.
The subject of assay [3] is RPMI-8226 leukemia.
Assay [4] relates to TK-10 renal.
In assay [5] the test system is SNB-75 CNS.
In assay [6] the test system is M14 melanoma.
Assay [7] deals with SR leukemia.
For assay [8], the system named is 786-0 renal.
Assay [9] has as its system PC-3 prostate.
In assay [10] the test system is A549 NSCLC.

Molecules are shown by their SMILES.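 Cultured in 96-well plates, cells were exposed to test compound for 48 hours across five concentrations. GI50 marks 50% less growth. The concentration for full growth arrest is given as TGI.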

`CN(Cc1cnc2nc(N)nc(N)c2n1)c1c(Cl)cc(C(=O)NC(CCC(=O)O)C(=O)O)cc1Cl` (centres undefined): the GI50 was 0.0994 µM in assay [1]; < 0.01 µM in assay [2]; < 0.01 µM in assay [3]; 1.88 µM in [4]; 0.173 µM in [5]; < 0.01 µM in assay [6]. Besides, the GI50 in assay [7] is < 0.01 µM; in [8], < 0.01 µM; in assay [9], < 0.01 µM; in assay [10], < 0.0116 µM. For the same molecule, the TGI in assay [1], in assay [2], in assay [3], in assay [4], in [5] and in assay [6] was > 100 µM throughout. The TGI in assay [7], in assay [8], in [9] and in assay [10] was > 100 µM throughout.

Turning to `COC1CCC(OC)C(c2nc3sccn3c2/C=N/N=C(N)N)C1` (centres undefined), the GI50 is 10.9 µM in assay [1]; > 100 µM in assay [2]; 4.18 µM in assay [3]; > 52.1 µM in assay [4]; 6.44 µM in [5]; 1.96 µM in [6]. Moreover, the GI50 is 0.0201 µM in assay [7], 19.7 µM in assay [8], 25 µM in assay [9] and 47 µM in assay [10]. For the same molecule, the TGI in [1] is 41.5 µM; in [2], > 100 µM; in assay [3], 43.9 µM; in assay [4], > 81.4 µM; in [5], > 77.2 µM; in assay [6] it was 35.4 µM. The TGI in assay [7] was 15 µM; in assay [8], 47 µM; in [9], > 65.4 µM; in assay [10], > 100 µM.

Regarding `CC(C)C(Br)C(=O)NCC(=O)O` (centres undefined), the TGI in assay [1], in assay [2], in [3], in assay [4], in assay [5] and in [6] was > 100 µM each time. The TGI in [7], in assay [8], in assay [9] and in assay [10] was > 100 µM throughout.

For `CCOc1ccc2cc(-c3nn(CC4CCN(C)CC4)c4ncnc(N)c34)ccc2c1`, the GI50 in assay [1] is 11.8 µM; in [2], 14.7 µM; in assay [3], 10.3 µM; in assay [4], 14.4 µM; in assay [5], 1.56 µM; in [6], 15.8 µM. Moreover, the GI50 is 3.63 µM in [7], 14.5 µM in assay [8], 17 µM in assay [9] and 17.9 µM in [10]. Also, the TGI in assay [1] was 25.2 µM; in assay [2], 33 µM; in assay [3] it was 30.5 µM; in [4], 34.3 µM; in [5] it was 15.9 µM; in assay [6] it was 32.5 µM. The TGI in [7] came to 18 µM; in assay [8], 29.7 µM; in [9], 43.5 µM; in assay [10], 40.2 µM.

Take `OC[C@H]1N[C@H](CO)[C@@H](O)[C@H]1O`: the TGI in assay [1], in assay [2], in assay [3], in assay [4], in assay [5] and in [6] was > 100 µM each time. Moreover, the TGI in assay [7], in assay [8], in assay [9] and in [10] was > 100 µM throughout.

As to `COc1ccc(C(=O)Cn2c(C(=O)c3ccc(Cl)cc3)nc(-c3ccccc3)c2-c2ccccc2)cc1`, the GI50 was 34.9 µM in assay [1]; 34.3 µM in assay [2]; > 100 µM in [3]; 46.5 µM in assay [4]; 85.8 µM in [5]; > 100 µM in [6]. Besides, the GI50 in assay [7] is > 100 µM; in assay [8], 79.6 µM; in [9] it was > 100 µM; in assay [10], 60 µM. Also, the TGI in assay [1], in assay [2], in assay [3], in assay [4], in assay [5] and in assay [6] was > 100 µM in each case. In addition, the TGI in [7], in assay [8], in assay [9] and in assay [10] was > 100 µM throughout.

As to `N#C/C(=C/C=C/c1cccc(Cl)c1)S(=O)c1ccccc1` (centres undefined), the GI50 in assay [1] is 1.8 µM; in assay [2], 0.34 µM; in assay [3] it was 0.339 µM; in assay [4], 0.359 µM; in assay [5], 1.2 µM; in [6], 1.1 µM. Besides, the GI50 in [7] was 0.227 µM; in assay [8] it was 0.308 µM; in assay [9], 0.25 µM; in [10] it was 1.21 µM. The TGI in [1] was 3.53 µM; in [2] it was 1.29 µM; in assay [3], 1 µM; in [4] it was 1.32 µM; in assay [5], 3.82 µM; in assay [6], 2.89 µM. For the same molecule, the TGI is 2.67 µM in [7], 1.01 µM in assay [8], 0.867 µM in assay [9] and 3.12 µM in assay [10].

In the case of `COc1ccc(CN2c3ccccc3Sc3ccccc32)cc1O`, the GI50 in [1] was 2.71 µM; in [2], 1.56 µM; in [3] it was 0.483 µM; in [4], 2.52 µM; in assay [5] it was 0.18 µM; in [6] it was 0.383 µM. The GI50 is 0.407 µM in [7], 0.838 µM in assay [8], 0.503 µM in assay [9] and 0.471 µM in assay [10]. In addition, the TGI is 19 µM in assay [1]; 21.8 µM in assay [2]; 35.5 µM in [3]; 20.5 µM in assay [4]; 13.3 µM in assay [5]; 18.6 µM in assay [6]. Moreover, the TGI in [7] amounted to 30.7 µM; in assay [8], 21.5 µM; in assay [9], 16.1 µM; in assay [10], 16.7 µM.

For `O=C(O)CCN1C(=S)CSC1=S`, the TGI in assay [1], in [2], in assay [3], in assay [4], in assay [5] and in assay [6] was > 100 µM in each case. Further, the TGI in assay [7], in assay [8], in assay [9] and in [10] was > 100 µM in each case.

For the molecule `O=C1C=C(NCCc2ccccc2)c2ccccc2C1=O`, the TGI is 10.1 µM in [1]; 12.2 µM in assay [2]; 67.5 µM in assay [3]; 27.3 µM in assay [4]; 3.14 µM in assay [5]; 2.99 µM in assay [6]. Besides, the TGI in [7] was determined as 43.3 µM; in assay [8], 16.6 µM; in assay [9], 26.2 µM; in assay [10], 3.79 µM.

Regarding `BrCc1ccc2ccc3ccc(CBr)nc3c2n1`, the TGI in assay [1] is 8.38 µM; in assay [2], 5.58 µM; in assay [3], > 100 µM; in assay [4], 5.72 µM; in assay [5], 6.69 µM; in assay [6] it was 8.79 µM. Besides, the TGI in [7] worked out at 5.54 µM; in assay [8] it was 7.58 µM; in assay [9], 5.75 µM; in assay [10], 34.7 µM.

In the case of `Cc1cc(C)c(-c2c(O)c(Br)c(-c3c(C)cc(C)c(Br)c3C)c(O)c2Br)c(C)c1Br`, the GI50 is 4.67 µM in assay [1]; 3.14 µM in assay [2]; 2.08 µM in [3]; 3.37 µM in assay [4]; 1.88 µM in assay [5]; 1.97 µM in assay [6]. Further, the GI50 was 2.32 µM in [7], 3.74 µM in assay [8], 1.88 µM in assay [9] and 2.73 µM in assay [10]. Besides, the TGI in assay [1] turned out to be 20.5 µM; in assay [2] it was 13 µM; in assay [3] it was 11.9 µM; in [4], 13.4 µM; in assay [5], 10.3 µM; in [6], 4.71 µM. Further, the TGI in assay [7] was determined as 8.29 µM; in assay [8], 14.3 µM; in [9] it was 8.76 µM; in assay [10], 11.7 µM.

For `CC(=O)/C(=N\N=C(N)N)c1ccccc1`, the TGI in assay [1], in assay [2], in assay [3], in assay [4], in assay [5] and in assay [6] was > 100 µM in each case. The TGI in assay [7], in assay [8], in [9] and in [10] was > 100 µM in each case.

Take `CN(C)CCN=c1nc2c(c(N)n1-c1ccccc1)c(=S)n(-c1ccccc1)c(=S)n2-c1ccccc1`: the GI50 in assay [1] was 1.24 µM; in [2], 2.89 µM; in assay [3] it was 0.587 µM; in assay [4], 2.36 µM; in assay [5], 2.3 µM; in [6], 1.69 µM. In addition, the GI50 was 1.36 µM in [7], 1.33 µM in [8], 4.58 µM in [9] and 4.86 µM in assay [10]. Besides, the TGI in assay [1] was found to be 4.08 µM; in [2], 9.71 µM; in [4], 10.1 µM; in [5], 7.27 µM; in [6], 3.81 µM; in assay [7], 3.34 µM. The values for the TGI in assay [8], in assay [9] and in assay [10] were 3.93 µM, 27.7 µM and 19.8 µM, respectively.
